Results published in the OligoGym collection.
Where “and” joins values, the source holds several entries; their conditions need not be identical. Identical values can stand only once. After the bases stand the sugars from the 5' end (letter, count) and the backbone: PS all phosphorothioate, else s phosphorothioate and o phosphodiester by linkage. Methylation of C is not given here. e = 2'-O-(2-methoxyethyl) (MOE); d = 2'-deoxy (DNA)

Molecular target: DGAT2
Conditions: ASO

| Sequence | target mRNA inhibition (HepG2, 2.5 µM) | target mRNA inhibition (HepG2, 10 µM) | target mRNA inhibition (HepG2, 0.12 µM) | target mRNA inhibition (HepG2, 20 µM) [%] |
| --- | --- | --- | --- | --- |
| GCAGCAGGTACTCATGTTTG (sugars e5 d10 e5, PS) | 54% | 75% | – | – |
| CGCGCAGGACCCCGGAGTAG (sugars e2 d13 e5, PS) | – | – | 67% | – |
| ACCAGCTGCAAGGATGACCT (sugars e5 d10 e5, PS) | – | – | 49% | – |
| GTCATCCAGTATAGCCTAAT (sugars e5 d10 e5, PS) | – | – | 44% | – |
| CACTGGAGCACTGAGATGAC (sugars e5 d10 e5, PS) | – | – | 27% and 48% | – |
| CTGCCACCTTCCAGGGAATA (sugars e5 d10 e5, PS) | – | – | 27% | – |
| TGCCCTTGCTGTAGGACCCA (sugars e5 d10 e5, PS) | 92% and 79% | 88% and 95% | – | – |
| CAGCCAAGTGAAGTAGAGCA (sugars e5 d10 e5, PS) | – | – | 41% | – |
| ATTTCTTATCTTCAATCCTC (sugars e5 d10 e5, PS) | 57% | 95% | – | – |
| CTTCTTCTGGACCCATCGGC (sugars e5 d10 e5, PS) | – | – | 27% | – |
| GAAATCCAATGCACCTTGTA (sugars e5 d10 e5, PS) | 63% | 94% | – | – |
| AGGTTGTGTGTCTTCACCAG (sugars e3 d14 e3, PS) | – | – | 61% | – |
| CAGAGTTATCCTCAATTCAC (sugars e5 d10 e5, PS) | – | – | 34% | – |
| AATCCAACCCTTGTCACTCT (sugars e5 d10 e5, PS) | 33% | 94% | – | – |
| GCCTGGACAAGTCCTGCCCA (sugars e3 d14 e3, PS) | 45% and 42% | 89% | 84% | 48 |
| GTCCTGGAGGGCGGAGAGGA (sugars e5 d10 e5, PS) | – | – | 32% | – |
| AGAGCACAGCGATGAGCCAG (sugars e5 d10 e5, PS) | 52% | 85% | – | – |
| TTGGTCTTTTTGGCTGCCCT (sugars e5 d10 e5, PS) | – | 85% and 82% | – | – |
| ACAAAGTCTATCAGGATGCA (sugars e5 d10 e5, PS) | 53% | 91% | – | – |
| AGAAAAACCAGTTACTCCAC (sugars e5 d10 e5, PS) | – | – | 4% | – |
| TTTCGGACCCACTGTGACCT (sugars e2 d13 e5, PS) | – | – | 68% | – |
| CTGCTTGTACACTTCATTCT (sugars e5 d10 e5, PS) | – | – | 58% | – |
| CAGGTTCATCTGCCTTGACG (sugars e5 d10 e5, PS) | 69% | 72% | – | – |

| Sequence | target mRNA inhibition (HepG2, 2.5 µM) | target mRNA inhibition (HepG2, 10 µM) | target mRNA inhibition (HepG2, 0.12 µM) | target mRNA inhibition (HepG2, 20 µM) [%] |
| --- | --- | --- | --- | --- |
| GTAGGGCACCAGCCCCCAGG (sugars e5 d10 e5, PS) | – | – | 23% | – |
| CGGACTGAATGTCACCT (sugars e3 d10 e4, PS) | 60% and 68% | 87% and 83% | – | – |
| CAGCAGGTTGTGTGTCTTCA (sugars e5 d10 e5, PS) | 16% and 39% | 63% and 79% | 66% and 75% | – |
| TGTCTTCACCAGCTGGATGG (sugars e5 d10 e5, PS) | – | – | 55% | – |
| CAATGGGAATGGTATCGCAC (sugars e5 d10 e5, PS) | 68% and 62% | 93% and 85% | – | – |
| TGGGAACAGCAGCATCAGCA (sugars e5 d10 e5, PS) | 65% | 80% | – | – |
| CTGTGCTCTGTGGGCTCCTC (sugars e5 d10 e5, PS) | 57% | 89% | – | – |
| TAGGGCACCAGCCCCCAGGT (sugars e5 d10 e5, PS) | – | – | 32% | – |
| TGAGCTCTCAAGTCTTCCTC (sugars e5 d10 e5, PS) | 55% | 89% | – | – |
| AGGCCAAGGACAGAGGTTCA (sugars e5 d10 e5, PS) | 60% and 51% | 81% and 87% | – | – |
| AGGACCCCGGAGTAGGCGGC (sugars e5 d10 e5, PS) | 60% | 92% | 52% and 76% | – |
| AGGCACAGAAAAGTGAGGCT (sugars e5 d10 e5, PS) | 75% | 67% | – | – |
| AACCACAGCGATAATCACAC (sugars e5 d10 e5, PS) | 66% | 91% | – | – |
| ACTTCATTCTCTCCAAAGGA (sugars e5 d10 e5, PS) | – | – | 45% | – |
| GCTTGTCGAAGAGCTTCACC (sugars e5 d10 e5, PS) | 25% | 78% | – | – |
| GATCACCTGCTTGTACACTT (sugars e5 d10 e5, PS) | 36% | 64% | – | – |
| GGTCAGCCTCGGCCTGACGC (sugars e5 d10 e5, PS) | – | – | 11% | – |
| AAGATATAGTTCCTGGTGGT (sugars e5 d10 e5, PS) | – | – | 41% | – |
| CCAGGGCCTCCATGTACATG (sugars e2 d13 e5, PS) | – | – | 69% | – |
| AGGACACCTGGAGCTGCGGC (sugars e5 d10 e5, PS) | 42% | 84% | – | – |
| GCCAAGGACAGAGGTTCAAC (sugars e5 d10 e5, PS) | 61% | 90% | – | – |
| GGAGCCCTCACAGGGCCAGG (sugars e5 d10 e5, PS) | – | – | 38% | – |
| TAAAGAGGCTGGGCCATAGA (sugars e5 d10 e5, PS) | – | – | 21% | – |

| Sequence | target mRNA inhibition (HepG2, 2.5 µM) | target mRNA inhibition (HepG2, 10 µM) | target mRNA inhibition (HepG2, 0.12 µM) | target mRNA inhibition (HepG2, 20 µM) [%] |
| --- | --- | --- | --- | --- |
| GTAGCTGCTTTTCCACCTTG (sugars e5 d10 e5, PS) | – | – | 43% | – |
| AAATAACCCACAGACACCCA (sugars e5 d10 e5, PS) | 52% and 50% and 46% | 96% and 85% | 10% | 97 |
| CACCATTTTCACAAGGAGAA (sugars e5 d10 e5, PS) | 86% | 82% | – | – |
| CAGTGGGCCCCAGGTGGCTC (sugars e5 d10 e5, PS) | – | – | 46% | – |
| AGGAAAACTTAGGCATGCTT (sugars e5 d10 e5, PS) | 58% | 84% | – | – |
| TGGACAAGTCCTGCCCATCT (sugars e3 d14 e3, PS) | – | – | 69% | – |
| TAGCTCATGGTGGCGGCATC (sugars e5 d10 e5, PS) | – | – | 35% | – |
| GGAACTTCTTCTGGACCCAT (sugars e5 d10 e5, PS) | – | – | 36% | – |
| GCAAATAGTCTATGGTGTCC (sugars e5 d10 e5, PS) | – | – | 60% | – |
| TAGCCAGGTAAGGCCGTATG (sugars e5 d10 e5, PS) | – | – | 56% and 60% | – |
| ACCCAGAGATGGTGATAAGG (sugars e5 d10 e5, PS) | – | – | 53% | – |
| ACCAGCCAGGCCCAGACCCA (sugars e5 d10 e5, PS) | 21% | 43% | – | – |
| TGTGCTGCATCCATGTCATC (sugars e5 d10 e5, PS) | – | – | 36% | – |
| CCGGAGTAGGCGGCTATGAG (sugars e5 d10 e5, PS) | – | – | 37% | – |
| GGGATGATAAACACTAAGGT (sugars e5 d10 e5, PS) | – | – | 37% | – |
| ATTGCCACTCCCATTCTTTG (sugars e3 d14 e3, PS) | – | – | 40% | – |
| GGGTCCTCTCCGCTGCC (sugars e3 d10 e4, PS) | 47% | 69% | – | – |
| AAGGCCGTATGCCTGGGAAC (sugars e5 d10 e5, PS) | – | – | 25% | – |
| TGGATACTCAGAAGAGCAGT (sugars e5 d10 e5, PS) | – | – | 37% | – |
| GCAGGTTCATCTGCCTTGAC (sugars e5 d10 e5, PS) | 80% and 65% | 81% and 85% | – | – |
| TCCTCTCCTGTTTGATGGGT (sugars e5 d10 e5, PS) | 83% and 90% | 89% and 84% | – | – |
| CTTGGGTGTGTTCCAGTCAA (sugars e5 d10 e5, PS) | – | – | 5% | – |
| TGTACACTTCATTCTCTCCA (sugars e5 d10 e5, PS) | 41% | 87% | – | – |

| Sequence | target mRNA inhibition (HepG2, 2.5 µM) | target mRNA inhibition (HepG2, 10 µM) | target mRNA inhibition (HepG2, 0.12 µM) | target mRNA inhibition (HepG2, 20 µM) [%] |
| --- | --- | --- | --- | --- |
| CTGGATGGGAAAGTAGTCTC (sugars e5 d10 e5, PS) | – | – | 38% | – |
| CCTGGACAAGTCCTGCCCAT (sugars e2 d13 e5, PS) | – | – | 59% | – |
| AGGCATATACAAAAGTCTGA (sugars e5 d10 e5, PS) | – | – | 38% | – |
| TTTCGGACCCACTGTGACCT (sugars e3 d14 e3, PS) | – | – | 61% | – |
| ATTGCCACTCCCATTCTTTG (sugars e2 d13 e5, PS) | – | – | 53% | – |
| GCCTGGGAACTTCTTGCTCA (sugars e5 d10 e5, PS) | – | – | 47% | – |
| CATACTGGCATCTGGCAGGG (sugars e5 d10 e5, PS) | 65% | 83% | – | – |
| GCACCATAATCTGCACAGGT (sugars e5 d10 e5, PS) | 88% and 86% | 93% and 89% and 92% | – | – |
| ATAATTTCTTTTAAATAACC (sugars e5 d10 e5, PS) | – | – | 0% | – |
| TGGACAAGTCATCTTCCAGC (sugars e5 d10 e5, PS) | 52% | 74% | – | – |
| TTCCACTCTTCTGACAGGTC (sugars e5 d10 e5, PS) | – | 89% and 84% | – | – |
| GGCCCCAGGAGCCCTCCTCG (sugars e5 d10 e5, PS) | – | – | 40% | – |
| TGTGTCTTCACCAGCTGGAT (sugars e5 d10 e5, PS) | – | – | 55% | – |
| CCATGTACATGGTGTGGTAC (sugars e5 d10 e5, PS) | – | – | 52% | – |
| GGTTGTGTGTCTTCACCAGC (sugars e5 d10 e5, PS) | 0% | – | 64% and 70% | – |
| TTGTCCTGGTCCCAGTACTT (sugars e5 d10 e5, PS) | 68% | 88% | – | – |
| GGCCCAGATTTAGCCACCAC (sugars e5 d10 e5, PS) | 51% | 79% | – | – |
| TGGTGATGGGCTTGGAGTAG (sugars e5 d10 e5, PS) | – | – | 28% | – |
| AGGGAGGCCTTGCACTTACC (sugars e5 d10 e5, PS) | – | – | 13% | – |
| TGTGCTCTGTGGGCTCCTCC (sugars e5 d10 e5, PS) | 66% | 85% | – | – |
| GGCTTGGAGTAGGGCACCAG (sugars e5 d10 e5, PS) | – | – | 56% | – |
| GTGGTGATGGGCTTGGAGTA (sugars e5 d10 e5, PS) | – | – | 23% | – |
